Experimental data published in ChEMBL document CHEMBL3085629, “Highly functionalized 2-oxopiperazine-based peptidomimetics: an approach to PAR1 antagonists” (2013).
Calls of active or inactive are those of the source. The rule behind the calls is not given here.

Experiments:
MDA-MB-231 = assay: Cytotoxicity against human MDA-MB-231 cells after 48 hrs by sulforhodamine B assay; type: functional; settings: MDA-MB-231, 48 h
HT-29 = assay: Cytotoxicity against human HT-29 cells after 48 hrs by sulforhodamine B assay; type: functional; settings: HT-29, 48 h
A549 = assay: Cytotoxicity against human A549 cells after 48 hrs by sulforhodamine B assay; type: functional; settings: A549, 48 h
[1] = target: T1, Proteinase-activated receptor 1 (Homo sapiens) (UniProt P25116); assay: Antagonist activity at PAR1 in human platelet rich plasma assessed as inhibition of SFLLRN-induced platelet aggregation at 150 uM after 5 mins by aggregometric analysis relative to control
T1 sequence (whole entry): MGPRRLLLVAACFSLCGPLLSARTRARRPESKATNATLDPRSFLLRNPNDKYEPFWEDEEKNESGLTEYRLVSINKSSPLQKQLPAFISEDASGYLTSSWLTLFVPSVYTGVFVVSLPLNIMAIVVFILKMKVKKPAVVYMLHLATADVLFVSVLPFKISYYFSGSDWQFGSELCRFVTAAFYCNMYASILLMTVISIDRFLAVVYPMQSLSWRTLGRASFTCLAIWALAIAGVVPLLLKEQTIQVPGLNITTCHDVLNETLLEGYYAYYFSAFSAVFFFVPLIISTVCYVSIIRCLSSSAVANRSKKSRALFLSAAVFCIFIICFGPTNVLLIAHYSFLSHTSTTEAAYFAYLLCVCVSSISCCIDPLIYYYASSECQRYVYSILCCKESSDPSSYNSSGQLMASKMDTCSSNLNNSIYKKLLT

inhibition [1]	SMILES	GI50 (MDA-MB-231) [µM]	GI50 (HT-29) [µM]	GI50 (A549) [µM]
inactive	CC(C)(C)OC(=O)NCCCC[C@@H]1N[C@H]([C@H](Cc2cn(C(=O)OC(C)(C)C)c3ccccc23)NC(=O)OC(C)(C)C)CNC1=O	5.31	5.43	9.75
Active	Cc1c(C)c(S(=O)(=O)/N=C(/N)NCCC[C@H]2C(=O)N(Cc3ccccc3)C[C@@H]([C@H](Cc3cn(C(=O)OC(C)(C)C)c4ccccc34)NC(=O)OC(C)(C)C)N2Cc2ccccc2)c(C)c2c1OC(C)(C)C2	–	–	–
Active	Cc1c(C)c(S(=O)(=O)/N=C(\N)NCCC[C@H]2C(=O)N(Cc3ccccc3)C[C@H]([C@H](Cc3c[nH]c4ccccc34)NC(=O)NCc3ccccc3)N2Cc2ccccc2)c(C)c2c1OC(C)(C)C2	–	–	–
Active	Cc1c(C)c(S(=O)(=O)/N=C(\N)NCCC[C@H]2C(=O)N(Cc3ccccc3)C[C@@H]([C@H](Cc3c[nH]c4ccccc34)NC(=O)NCc3ccccc3)N2Cc2ccccc2)c(C)c2c1OC(C)(C)C2	–	–	–
Active	Cc1c(C)c(S(=O)(=O)/N=C(\N)NCCC[C@H]2C(=O)N(Cc3ccccc3)C[C@H]([C@H](Cc3ccccc3)NC(=O)OC(C)(C)C)N2Cc2ccccc2)c(C)c2c1OC(C)(C)C2	–	–	–
Active	Cc1c(C)c(S(=O)(=O)/N=C(\N)NCCC[C@H]2C(=O)N(Cc3ccccc3)C[C@@H]([C@H](Cc3ccccc3)NC(=O)OC(C)(C)C)N2Cc2ccccc2)c(C)c2c1OC(C)(C)C2	–	–	–
Active	Cc1c(C)c(S(=O)(=O)/N=C(/N)NCCC[C@H]2C(=O)N(Cc3ccccc3)C[C@@H](CCc3ccccc3)N2Cc2ccccc2)c(C)c2c1OC(C)(C)C2	–	–	–
Active	Cc1c(C)c(S(=O)(=O)/N=C(/N)NCCC[C@H]2C(=O)N(Cc3ccccc3)C[C@H](CCc3ccccc3)N2Cc2ccccc2)c(C)c2c1OC(C)(C)C2	–	–	–
inactive	CC(C)(C)OC(=O)CN1[C@@H]([C@H](Cc2cn(C(=O)OC(C)(C)C)c3ccccc23)NC(=O)OC(C)(C)C)CN(Cc2ccccc2)C(=O)[C@@H]1CCCCNC(=O)OC(C)(C)C	1.56	4.44	> 10
inactive	CC(C)(C)OC(=O)NCCCC[C@@H]1N[C@@H]([C@H](Cc2cn(C(=O)OC(C)(C)C)c3ccccc23)NC(=O)OC(C)(C)C)CNC1=O	5.56	5.43	> 10
inactive	CC(C)(C)OC(=O)NCCCC[C@H]1C(=O)NC[C@@H]([C@H](Cc2cn(C(=O)OC(C)(C)C)c3ccccc23)NC(=O)OC(C)(C)C)N1Cc1ccccc1	4.58	4.45	5.56
Active	Cc1c(C)c(S(=O)(=O)/N=C(/N)NCCC[C@H]2C(=O)N(Cc3ccccc3)C[C@H](CCc3cn(C(=O)OC(C)(C)C)c4ccccc34)N2Cc2ccccc2)c(C)c2c1OC(C)(C)C2	–	–	–
Active	Cc1c(C)c(S(=O)(=O)/N=C(\N)NCCC[C@H]2C(=O)N(Cc3ccccc3)C[C@H]([C@H](Cc3ccccc3)NC(=O)OC(C)(C)C)N2CC(=O)OC(C)(C)C)c(C)c2c1OC(C)(C)C2	–	–	–
inactive	CC(C)(C)OC(=O)NCCCC[C@H]1C(=O)NC[C@H]([C@H](Cc2cn(C(=O)OC(C)(C)C)c3ccccc23)NC(=O)OC(C)(C)C)N1Cc1ccccc1	2.92	4.58	4.86
inactive	CC(C)(C)OC(=O)CN1[C@@H](CCCCNC(=O)OC(C)(C)C)C(=O)NC[C@H]1[C@H](Cc1cn(C(=O)OC(C)(C)C)c2ccccc12)NC(=O)OC(C)(C)C	6.72	5.78	8.6
inactive	CC(C)(C)OC(=O)CN1[C@@H](CCCCNC(=O)OC(C)(C)C)C(=O)N(Cc2ccccc2)C[C@H]1[C@H](Cc1cn(C(=O)OC(C)(C)C)c2ccccc12)NC(=O)OC(C)(C)C	–	–	–

Continued, compound first:

SMILES	inhibition [1]	GI50 (MDA-MB-231) [µM]	GI50 (HT-29) [µM]	GI50 (A549) [µM]
Cc1c(C)c(S(=O)(=O)/N=C(/N)NCCC[C@H]2C(=O)N(Cc3ccccc3)C[C@H]([C@H](Cc3cn(C(=O)OC(C)(C)C)c4ccccc34)NC(=O)OC(C)(C)C)N2CC(=O)OC(C)(C)C)c(C)c2c1OC(C)(C)C2	Active	–	–	–
Cc1c(C)c(S(=O)(=O)/N=C(/N)NCCC[C@H]2C(=O)NC[C@H]([C@H](Cc3ccccc3)NC(=O)OC(C)(C)C)N2Cc2ccccc2)c(C)c2c1OC(C)(C)C2	–	6.83	5.26	1.24
CC(C)(C)OC(=O)CN1[C@@H]([C@H](Cc2cn(C(=O)OC(C)(C)C)c3ccccc23)NC(=O)OC(C)(C)C)CNC(=O)[C@@H]1CCCCNC(=O)OC(C)(C)C	inactive	2.29	3.09	4.57
Cc1c(C)c(S(=O)(=O)/N=C(/N)NCCC[C@H]2C(=O)N(Cc3ccccc3)C[C@H]([C@H](Cc3cn(C(=O)OC(C)(C)C)c4ccccc34)NC(=O)OC(C)(C)C)N2Cc2ccccc2)c(C)c2c1OC(C)(C)C2	Active	–	–	–
Cc1c(C)c(S(=O)(=O)/N=C(/N)NCCC[C@H]2C(=O)NC[C@H]([C@H](Cc3cn(C(=O)OC(C)(C)C)c4ccccc34)NC(=O)OC(C)(C)C)N2CC(=O)OC(C)(C)C)c(C)c2c1OC(C)(C)C2	–	4.54	4.98	3.25
CC(C)(C)OC(=O)NCCCC[C@H]1C(=O)N(Cc2ccccc2)C[C@H]([C@H](Cc2cn(C(=O)OC(C)(C)C)c3ccccc23)NC(=O)OC(C)(C)C)N1Cc1ccccc1	inactive	3.33	> 10	> 10
CC(C)(C)OC(=O)NCCCC[C@H]1C(=O)N(Cc2ccccc2)C[C@@H]([C@H](Cc2cn(C(=O)OC(C)(C)C)c3ccccc23)NC(=O)OC(C)(C)C)N1Cc1ccccc1	inactive	1.48	3.83	> 10
Cc1c(C)c(S(=O)(=O)/N=C(\N)NCCC[C@H]2C(=O)N(Cc3ccccc3)C[C@H]([C@H](Cc3ccccc3)NC(=O)NCc3ccccc3)N2Cc2ccccc2)c(C)c2c1OC(C)(C)C2	Active	–	–	–
Cc1c(C)c(S(=O)(=O)/N=C(/N)NCCC[C@H]2C(=O)N(Cc3ccccc3)C[C@@H]([C@H](Cc3cn(C(=O)OC(C)(C)C)c4ccccc34)NC(=O)OC(C)(C)C)N2CC(=O)OC(C)(C)C)c(C)c2c1OC(C)(C)C2	Active	–	–	–
Cc1c(C)c(S(=O)(=O)/N=C(\N)NCCC[C@H]2C(=O)N(Cc3ccccc3)C[C@@H]([C@H](Cc3ccccc3)NC(=O)NCc3ccccc3)N2Cc2ccccc2)c(C)c2c1OC(C)(C)C2	57%	–	–	–
Cc1c(C)c(S(=O)(=O)/N=C(/N)NCCC[C@H]2C(=O)NC[C@@H]([C@H](Cc3ccccc3)NC(=O)OC(C)(C)C)N2Cc2ccccc2)c(C)c2c1OC(C)(C)C2	–	6.04	3.29	5.39
Cc1c(C)c(S(=O)(=O)/N=C(/N)NCCC[C@H]2C(=O)N(Cc3ccccc3)C[C@@H](CCc3cn(C(=O)OC(C)(C)C)c4ccccc34)N2Cc2ccccc2)c(C)c2c1OC(C)(C)C2	Active	–	–	–
Cc1c(C)c(S(=O)(=O)/N=C(/N)NCCC[C@H]2C(=O)NC[C@@H]([C@H](Cc3cn(C(=O)OC(C)(C)C)c4ccccc34)NC(=O)OC(C)(C)C)N2Cc2ccccc2)c(C)c2c1OC(C)(C)C2	–	4.55	3.78	5.55
Cc1c(C)c(S(=O)(=O)/N=C(/N)NCCC[C@H]2C(=O)NC[C@H]([C@H](Cc3cn(C(=O)OC(C)(C)C)c4ccccc34)NC(=O)OC(C)(C)C)N2Cc2ccccc2)c(C)c2c1OC(C)(C)C2	–	4.44	3.78	4.89
Cc1c(C)c(S(=O)(=O)/N=C(\N)NCCC[C@H]2C(=O)N(Cc3ccccc3)C[C@@H]([C@H](Cc3ccccc3)NC(=O)OC(C)(C)C)N2CC(=O)OC(C)(C)C)c(C)c2c1OC(C)(C)C2	Active	–	–	–
Cc1c(C)c(S(=O)(=O)/N=C(/N)NCCC[C@H]2C(=O)NC[C@@H]([C@H](Cc3cn(C(=O)OC(C)(C)C)c4ccccc34)NC(=O)OC(C)(C)C)N2CC(=O)OC(C)(C)C)c(C)c2c1OC(C)(C)C2	–	4.87	2.92	7.68
COc1cccc2c1C(=O)c1c(O)c3c(c(O)c1C2=O)C[C@@](O)(C(=O)CO)C[C@@H]3O[C@H]1C[C@H](N)[C@H](O)[C@H](C)O1 [DOXORUBICIN]	–	0.09	0.1	0.07
